Some test systems named below: UACC-257 melanoma; ACHN renal; A549 NSCLC; CAKI-1 renal; HCT-116 colon; HT29 colon; NCI-H23 lung; SR leukemia; NCI-H226 lung; BT-549 breast.
Common to all, as to assay: inhibition of tumour cell growth, NCI panel, 48 h

“And” between values parts separate entries of the source, which are not always exact repeats. Equal values may be shown once.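 Exposure lasted 48 hours, with cells grown in 96-well plates and compounds tested at five concentrations. GI50: concentration for 50% inhibition of growth. At the TGI there is no net growth.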

For `Cc1cnc(/C=N\NC(N)=S)c2cccc(N)c12`, the GI50 in the assay with UACC-257 melanoma was 4.81 µM; in the assay with ACHN renal, 1.51 µM; in the assay with A549 NSCLC, 4.85 µM; with CAKI-1 renal, 2.51 µM; with HCT-116 colon, 4.41 µM; in the assay on HT29 colon, 5.11 µM. For the same compound, the GI50 was 2.14 µM in the assay on NCI-H23 lung, 0.587 µM in the assay on SR leukemia, 2.39 µM in the assay on NCI-H226 lung and 3.52 µM with BT-549 breast. Besides, the TGI in the assay on UACC-257 melanoma is over 38.8 µM; in the assay with ACHN renal it was over 30.9 µM; with A549 NSCLC, over 100 µM; in the assay on CAKI-1 renal it was over 57 µM; in the assay on HCT-116 colon, > 100 µM and 28.3 µM; with HT29 colon, over 100 µM. Also, the TGI in the assay on NCI-H23 lung, in the assay on NCI-H226 lung and in the assay on BT-549 breast was over 100 µM in each case.

With `O=C1C2=Nc3ccccc3C(O)N2c2ccccc21` (centres undefined), the TGI is 16.5 µM in the assay on UACC-257 melanoma; over 100 µM with ACHN renal; over 100 µM in the assay on A549 NSCLC; over 100 µM with CAKI-1 renal; over 100 µM with HCT-116 colon; over 100 µM in the assay with HT29 colon. Further, the TGI is 28.8 µM in the assay with NCI-H23 lung, over 100 µM in the assay on SR leukemia, 77.3 µM in the assay with NCI-H226 lung and over 100 µM in the assay with BT-549 breast.

As for `C[C@@H]1CC[C@@H]2[C@@H]1[C@H](OC(=O)/C=C/c1ccccc1)[C@]1(C3CCCCC3)C[C@@H](NC(=O)CO)[C@@]2(C)O1`, the GI50 is 25.2 µM in the assay on UACC-257 melanoma; 3.51 µM in the assay with ACHN renal; 21 µM with A549 NSCLC; 6.01 µM with CAKI-1 renal; 19.5 µM in the assay with HCT-116 colon; 18.9 µM in the assay on HT29 colon. Besides, the GI50 in the assay with NCI-H23 lung was 18.9 µM; in the assay with SR leukemia, 19.8 µM; with NCI-H226 lung, 16.7 µM; in the assay on BT-549 breast it was 13.2 µM. Moreover, the TGI is 42.1 µM with UACC-257 melanoma; 13.1 µM with ACHN renal; 37 µM in the assay on A549 NSCLC; 19.7 µM in the assay with CAKI-1 renal; 34.2 µM in the assay with HCT-116 colon; 35.5 µM in the assay with HT29 colon. Moreover, the TGI came out at 38.4 µM in the assay with NCI-H23 lung, 41.2 µM in the assay on SR leukemia, 32.4 µM with NCI-H226 lung and 26.7 µM in the assay on BT-549 breast.

Consider `O=C(Nc1ccc(Cl)cc1F)c1cc(I)ccc1O`, for which the GI50 was 0.812 µM with UACC-257 melanoma; 1.81 µM in the assay with ACHN renal; 2.88 µM in the assay on A549 NSCLC; 1.28 µM with CAKI-1 renal; 1.22 µM in the assay on HCT-116 colon; 3.57 µM with HT29 colon. Besides, the GI50 with NCI-H23 lung is 1.78 µM; with SR leukemia it was 1.5 µM; in the assay with NCI-H226 lung it was 1.94 µM; with BT-549 breast it was 0.735 µM. Besides, the TGI in the assay with UACC-257 melanoma is 6.64 µM; in the assay with ACHN renal, 10.1 µM; in the assay on A549 NSCLC, over 100 µM; with CAKI-1 renal, 5.73 µM; in the assay on HCT-116 colon, 2.87 µM; with HT29 colon it was over 100 µM. Besides, the TGI in the assay on NCI-H23 lung was 6.59 µM; with SR leukemia, over 100 µM; with NCI-H226 lung, 7.14 µM; in the assay on BT-549 breast it was 2.64 µM.

Regarding `O=C([O][Hg][CH2]C1COC([CH2][Hg][O]C(=O)c2ccccc2)CO1)c1ccccc1` (centres undefined), the GI50 is 14.8 µM and 1.98 µM in the assay with UACC-257 melanoma; 8.92 µM and 1.67 µM in the assay on ACHN renal; 19.3 µM and 16.4 µM in the assay on A549 NSCLC; 3.38 µM in the assay with CAKI-1 renal; 4.24 µM and 1.39 µM in the assay on HCT-116 colon; 15.7 µM and 1.7 µM in the assay on HT29 colon. Besides, the GI50 in the assay with NCI-H23 lung is 9.82 µM; in the assay on SR leukemia, 2.83 µM and 1.65 µM; in the assay with NCI-H226 lung it was 20.2 µM and 6.31 µM; in the assay on BT-549 breast, 7.71 µM and 1.69 µM. In addition, the TGI with UACC-257 melanoma is 28.1 µM and 3.98 µM; in the assay on ACHN renal, 20.7 µM and 3.08 µM; with A549 NSCLC it was 37.6 µM and 33.8 µM; in the assay with CAKI-1 renal, 6.76 µM; with HCT-116 colon, 14.7 µM and 2.68 µM; in the assay with HT29 colon, 30.5 µM and 3.26 µM. In addition, the TGI in the assay with NCI-H23 lung was 23.3 µM; in the assay on SR leukemia, over 22.6 µM; in the assay on NCI-H226 lung it was 39.1 µM and 34 µM; with BT-549 breast it was 20.4 µM and 3.27 µM.

Turning to `O=C(CN1CCN(c2ccc(Cl)cc2)CC1)N1CCN(c2nnc(-c3ccc(Cl)cc3)c(-c3ccc(Cl)cc3)n2)CC1`, the GI50 in the assay on UACC-257 melanoma is over 100 µM; in the assay on ACHN renal, 31.5 µM; in the assay on A549 NSCLC, over 100 µM; with CAKI-1 renal it was 52.6 µM; in the assay on HCT-116 colon it was 7.84 µM; in the assay with HT29 colon, 9.85 µM. For the same compound, the GI50 was 48 µM in the assay on NCI-H23 lung, 10.1 µM in the assay on SR leukemia, 45.7 µM in the assay with NCI-H226 lung and 28.7 µM in the assay with BT-549 breast. The TGI in the assay with UACC-257 melanoma, in the assay with ACHN renal, with A549 NSCLC, in the assay with CAKI-1 renal, in the assay with HCT-116 colon and in the assay on HT29 colon was over 100 µM throughout. For the same compound, the TGI with NCI-H23 lung was over 100 µM; in the assay on SR leukemia, 53.9 µM; in the assay with NCI-H226 lung it was over 100 µM; in the assay on BT-549 breast it was over 100 µM.
